Our source for the AUC free and AUC total values is patent publication US20180344646A1, “AMORPHOUS DISPERSION GRANULES AND ORAL DOSAGE FORMS” (PATHEON DEVELOPMENT SERVICES INC., priority 2015, published 2018).

The data set in a line: In vitro non-sink dissolution, gastric-to-intestinal media transfer test. The class given is physicochemical. Also noted: AUC free: concentration or dose not given beside the values; AUC total: unit not given here. As to conditions: for AUC free: free drug; for AUC total: non-sink.
The mark [1] stands for this setting: Table 5 (nifedipine), Fasted Simulated Gastric (0.1 N HCl).
Where [2] appears, read: Table 5 (nifedipine), Fasted Simulated Intestinal (FaSSIF, pH 6.8).

Each structure is given as a SMILES string.

`COc1ccc2c(c1)c(CC(=O)O)c(C)n2C(=O)c1ccc(Cl)cc1` [indomethacin crystalline API, indomethacin]: the AUC free by setting is: (Table 2, Fasted Simulated Gastric (0.1 N HCl)) 0.0; (Table 2, Fasted Simulated Intestinal (FaSSIF, H 6.8)) 63324.8; under setting [1], 68.9; under setting [2], 1349.5. Besides, the AUC total was 1020.4 (Table 2, Fasted Simulated Gastric (0.1 N HCl), 2 mg indomethacin per mL); 81054.9 (Table 2, Fasted Simulated Intestinal (FaSSIF, H 6.8), 1 mg indomethacin per mL); 483.4 under setting [1]; 2810.0 under setting [2].
